Laboratory results taken from US11046716B2, “Beta-lactamase inhibitors” (priority 2015, dated 2021).
Like-named read-outs stand apart in the source and are kept apart here.

Key:
[1] = system: K. pneumoniae expressing the Class A carbapenemase KPC-2; assay: Broth microdilution MIC assay with meropenem, K. pneumoniae KPC-2; format: cell-based; details: Fixed Mero (meropenem) 4 μg/mL; K. p. 156319 KPC-3
Method in brief: (§1)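 In cation-adjusted Mueller Hinton broth, bacteria pre-grown 3-5 hours were exposed to test compound (2-fold, 16–0.125 μg/mL) plus a static 4 μg/ml β-lactam. A panel of control β-lactams was run alongside, and the compound MIC was judged by eye following 16-20 hours at 37° C.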

[2] = system: K. pneumoniae producing the Class D carbapenemase OXA-48; assay: Broth microdilution MIC assay with meropenem, K. pneumoniae OXA-48; format: cell-based; details: Fixed Mero (meropenem) 4 μg/mL; K. p. 11978 OXA-48
Method in brief: as §1

SHV-5 = target: T1, SHV-5 (Klebsiella pneumoniae, UniProt P0A3M1); assay: β-lactamase enzyme inhibition assay, SHV-5 (cefotaxime substrate); format: biochemical
T1 construct: made in house; host or cells: E. coli BL21(DE3)
Method in brief: (§2)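 Untagged enzyme from E. coli BL21(DE3), purified by Capto S then Superdex 75; 15 min 37 °C preincubation with inhibitor; KPC-2 read with imipenem at 300 nm, SHV-5 with cefotaxime at 260 nm, OXA-1 with nitrocefin 100 μM final at 486 nm; 10 min kinetic read; IC50 vs uninhibited wells.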

VIM-2 = target: T2, VIM-2 (Escherichia coli, UniProt Q5U7L7); assay: β-lactamase enzyme inhibition assay, VIM-2 (nitrocefin substrate); format: biochemical
T2 construct: made in house; host or cells: E. coli BL21(DE3)
Method in brief: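 Metallo-β-lactamase VIM-2 activity was tracked spectrophotometrically at 486 nm with 100 μM nitrocefin over 10 min, following 15 min preincubation with compound at 37 °C; inhibition was calculated per concentration.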

AmpC = target: T3, AmpC (Enterobacter cloacae, UniProt P05364); assay: β-lactamase enzyme inhibition assay, p99 AmpC (nitrocefin substrate); format: biochemical
T3 construct: made in house; host or cells: E. coli BL21(DE3)
Method in brief: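 Untagged enzyme from E. coli BL21(DE3), purified by Capto S then Superdex 75; 15 min 37 °C preincubation with inhibitor; 10 min kinetic read; IC50 vs uninhibited wells.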

[3] = system: P. aeruginosa expressing the Class B carbapenemase VIM-2; assay: Broth microdilution MIC assay with meropenem, P. aeruginosa VIM-2; format: cell-based; details: Fixed Mero (meropenem) 4 μg/mL; P. aerug. 2775 VIM-2
Method in brief: as §1

[4] = system: E. cloacae expressing the Class C P99; assay: Broth microdilution MIC assay with ceftazidime, E. cloacae P99; format: cell-based; details: Fixed CAZ (ceftazidime) 4 μg/mL; E. cl. 144200 p99 AmpC
Method in brief: as §1

[5] = system: K. pneumoniae expressing the class A carbapenemase KPC-2 and the class B carbapenemase VIM-4; assay: Broth microdilution MIC assay with meropenem, K. pneumoniae KPC-2 and VIM-4; format: cell-based; details: Fixed Mero (meropenem) 4 μg/mL; K. p. A-1797 KPC-2 VIM-4
Method in brief: as §1

KPC-2 = target: T4, KPC-2 (Klebsiella pneumoniae, UniProt Q9F663); assay: β-lactamase enzyme inhibition assay, KPC-2 (imipenem substrate); format: biochemical
T4 construct: made in house; host or cells: E. coli BL21(DE3)
Method in brief: as §2

[6] = system: E. coli expressing the Class A Extended Spectrum Beta-Lactamase (ESBL) CTX-M-15; assay: Broth microdilution MIC assay with ceftazidime, E. coli CTX-M-15; format: cell-based; details: Fixed CAZ (ceftazidime) 4 μg/mL; E. coli ESBL4 CTX-M-15
Method in brief: as §1

OXA-48 = OXA-48 (UniProt Q6XEC0); assay: β-lactamase enzyme inhibition assay, Class D oxacillinase; format: biochemical; details: read-out: OXA-48
[7] = Class B, nitrocefin substrate, 486 nm, read-out: VIM-2
[8] = Class A, imipenem substrate, 300 nm, read-out: KPC-2

T3 sequence (P05364 21-381): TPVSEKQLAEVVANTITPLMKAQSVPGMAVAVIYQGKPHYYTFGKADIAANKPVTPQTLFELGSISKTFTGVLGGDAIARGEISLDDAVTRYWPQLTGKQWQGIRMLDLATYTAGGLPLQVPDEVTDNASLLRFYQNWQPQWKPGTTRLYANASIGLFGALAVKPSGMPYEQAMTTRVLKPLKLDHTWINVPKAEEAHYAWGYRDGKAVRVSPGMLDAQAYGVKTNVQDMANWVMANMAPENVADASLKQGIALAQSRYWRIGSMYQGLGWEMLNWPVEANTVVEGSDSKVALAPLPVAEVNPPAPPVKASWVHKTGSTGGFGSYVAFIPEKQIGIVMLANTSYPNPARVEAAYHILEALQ
T4 sequence (Q9F663 25-293, looked up): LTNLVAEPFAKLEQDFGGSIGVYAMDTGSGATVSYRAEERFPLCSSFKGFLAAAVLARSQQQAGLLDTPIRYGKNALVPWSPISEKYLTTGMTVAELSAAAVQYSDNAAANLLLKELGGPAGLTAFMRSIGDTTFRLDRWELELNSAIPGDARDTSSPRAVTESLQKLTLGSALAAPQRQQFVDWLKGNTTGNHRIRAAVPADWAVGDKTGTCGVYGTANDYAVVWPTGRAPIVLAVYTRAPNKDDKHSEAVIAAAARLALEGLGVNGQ
T1 sequence (P0A3M1 22-286): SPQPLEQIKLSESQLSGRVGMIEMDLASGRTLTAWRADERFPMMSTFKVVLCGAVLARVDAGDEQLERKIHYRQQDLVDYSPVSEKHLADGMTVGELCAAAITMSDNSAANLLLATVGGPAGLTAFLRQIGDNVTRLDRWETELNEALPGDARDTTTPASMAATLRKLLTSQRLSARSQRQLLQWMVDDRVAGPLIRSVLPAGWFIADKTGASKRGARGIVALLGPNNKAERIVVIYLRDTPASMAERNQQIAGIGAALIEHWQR

Compound	MIC (μg/mL) of Exemplary Compounds in presence of fixed β-lactams: K. p. 156319 KPC-3 [1]	MIC (μg/mL) of Exemplary Compounds in presence of fixed β-lactams: K. p. 11978 OXA-48 [2]	IC50 (SHV-5) [nM]	IC50 (VIM-2; [7]) [nM]	IC50 (AmpC) [nM]	MIC (μg/mL) of Exemplary Compounds in presence of fixed β-lactams: P. aerug. 2775 VIM-2 [3]	MIC (μg/mL) of Exemplary Compounds in presence of fixed β-lactams: E. cl. 144200 p99 AmpC [4]	MIC (μg/mL) of Exemplary Compounds in presence of fixed β-lactams: K. p. A-1797 KPC-2 VIM-4 [5]	IC50 (KPC-2; [8]) [nM]	MIC (μg/mL) of Exemplary Compounds in presence of fixed β-lactams: E. coli ESBL4 CTX-M-15 [6]	IC50 (OXA-48) [nM]	IC50 (VIM-2) [nM]	IC50 (KPC-2) [nM]
N=CNCCn1nnnc1CC(=O)N[C@H]1Cc2cccc(C(=O)O)c2OB1O [Example 104, (R)-3-(2-(1-(2-formimidamidoethyl)-1H-tetrazol-5-yl)acetamido)-2-hydroxy-3,4-dihydro-2H-benzo[e][1,2]oxaborinine-8-carboxylic acid]	C (C represents an MIC of <1 μg/mL)	C (C represents an MIC of <1 μg/mL)	< 100	100 to 1000	< 100	C (C represents an MIC of <1 μg/mL)	C (C represents an MIC of <1 μg/mL)	C (C represents an MIC of <1 μg/mL)	< 100	C (C represents an MIC of <1 μg/mL)	100 to 1000	–	–
N=C(N)NCCn1nnnc1CC(=O)N[C@H]1Cc2cccc(C(=O)O)c2OB1O [Example 47, (R)-3-(2-(1-(2-guanidinoethyl)-1H-tetrazol-5-yl)acetamido)-2-hydroxy-3,4-dihydro-2H-benzo[e][1,2]oxaborinine-8-carboxylic acid]	C (C represents an MIC of <1 μg/mL)	C (C represents an MIC of <1 μg/mL)	< 100	< 100	< 100	C (C represents an MIC of <1 μg/mL)	C (C represents an MIC of <1 μg/mL)	B (B represents an MIC between 1 and 16 μg/mL inclusive)	< 100	C (C represents an MIC of <1 μg/mL)	1000 to 10000	–	–
CNCc1cn(CC(=O)N[C@H]2Cc3cccc(C(=O)O)c3OB2O)nn1 [Example 26, (R)-2-hydroxy-3-(2-(4-((methylamino)methyl)-1H-1,2,3-triazol-1-yl)acetamido)-3,4-dihydro-2H-benzo[e][1,2]oxaborinine-8-carboxylic acid]	B (B represents an MIC between 1 and 16 μg/mL inclusive)	B (B represents an MIC between 1 and 16 μg/mL inclusive)	< 100	< 100	< 100	B (B represents an MIC between 1 and 16 μg/mL inclusive)	C (C represents an MIC of <1 μg/mL)	C (C represents an MIC of <1 μg/mL)	100 to 1000	C (C represents an MIC of <1 μg/mL)	100 to 1000	–	–
NCCCn1nnc(CC(=O)N[C@H]2Cc3cccc(C(=O)O)c3OB2O)n1 [Example 51]	C (C represents an MIC of <1 μg/mL)	B (B represents an MIC between 1 and 16 μg/mL inclusive)	< 100	< 100	< 100	C (C represents an MIC of <1 μg/mL)	C (C represents an MIC of <1 μg/mL)	B (B represents an MIC between 1 and 16 μg/mL inclusive)	< 100	C (C represents an MIC of <1 μg/mL)	1000 to 10000	–	–
NCCn1cc(Cn2nnnc2CC(=O)N[C@H]2Cc3cccc(C(=O)O)c3OB2O)nn1 [Example 123, (R)-3-(2-(1-((1-(2-aminoethyl)-1H-1,2,3-triazol-4-yl)methyl)-1H-tetrazol-5-yl)acetamido)-2-hydroxy-3,4-dihydro-2H-benzo[e][1,2]oxaborinine-8-carboxylic acid]	C (C represents an MIC of <1 μg/mL)	B (B represents an MIC between 1 and 16 μg/mL inclusive)	< 100	–	< 100	A (A represents an MIC>16 μg/mL)	C (C represents an MIC of <1 μg/mL)	B (B represents an MIC between 1 and 16 μg/mL inclusive)	–	C (C represents an MIC of <1 μg/mL)	100 to 1000	1000 to 10000	100 to 1000
NCCn1cnc(C(=O)N[C@H]2Cc3cccc(C(=O)O)c3OB2O)n1 [Example 71, (R)-3-(1-(2-aminoethyl)-1H-1,2,4-triazole-3-carboxamido)-2-hydroxy-3,4-dihydro-2H-benzo[e][1,2]oxaborinine-8-carboxylic acid]	C (C represents an MIC of <1 μg/mL)	A (A represents an MIC>16 μg/mL)	100 to 1000	100 to 1000	< 100	C (C represents an MIC of <1 μg/mL)	C (C represents an MIC of <1 μg/mL)	B (B represents an MIC between 1 and 16 μg/mL inclusive)	100 to 1000	C (C represents an MIC of <1 μg/mL)	10000 to 100000	–	–
O=C(Cc1nnn(C2CNC2)n1)N[C@H]1Cc2cccc(C(=O)O)c2OB1O [Example 100, (R)-3-(2-(2-(azetidin-3-yl)-2H-tetrazol-5-yl)acetamido)-2-hydroxy-3,4-dihydro-2H-benzo[e][1,2]oxaborinine-8-carboxylic acid]	C (C represents an MIC of <1 μg/mL)	C (C represents an MIC of <1 μg/mL)	< 100	< 100	< 100	C (C represents an MIC of <1 μg/mL)	C (C represents an MIC of <1 μg/mL)	B (B represents an MIC between 1 and 16 μg/mL inclusive)	100 to 1000	C (C represents an MIC of <1 μg/mL)	< 100	–	–
